In ChEMBL document CHEMBL1130728, “Alkoxide-catalyzed ring-opening of a novel homosaccharin derivative: synthesis of potent, selective P3-lactam thrombin inhibitors containing P4-o-alkoxycarbonylbenzylsulfonamide residues” (Bioorg Med Chem Lett, 1998):

Columns and labels:
Plasminogen [1] = molecular target: T1, Plasminogen (Rattus norvegicus, UniProt Q01177); test: In vitro inhibitory activity was evaluated against thrombolytic enzyme plasmin
Serine protease 1 = Serine protease 1 (Homo sapiens, UniProt P07477); test: In vitro inhibitory activity was evaluated against human trypsin
Chain of Serine protease 1 (P07477 whole entry): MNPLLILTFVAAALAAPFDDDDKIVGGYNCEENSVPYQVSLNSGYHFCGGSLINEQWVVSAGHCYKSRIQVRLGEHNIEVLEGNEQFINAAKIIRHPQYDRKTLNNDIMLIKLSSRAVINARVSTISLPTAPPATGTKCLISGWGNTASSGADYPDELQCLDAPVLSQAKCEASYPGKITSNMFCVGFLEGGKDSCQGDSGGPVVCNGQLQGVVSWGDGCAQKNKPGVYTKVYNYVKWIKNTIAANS

[2] = In vitro inhibitory activity was evaluated against FIIa serine protease
Coagulation factor X = Coagulation factor X (Homo sapiens, UniProt P00742); test: In vitro inhibitory activity was evaluated against Coagulation factor X
Chain of Coagulation factor X (P00742 41-179 limits assumed): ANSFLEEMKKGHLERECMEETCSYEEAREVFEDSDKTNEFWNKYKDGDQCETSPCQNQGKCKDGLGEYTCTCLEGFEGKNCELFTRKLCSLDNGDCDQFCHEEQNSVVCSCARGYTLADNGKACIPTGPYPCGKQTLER
Chain of Coagulation factor X (P00742 235-488 limits assumed): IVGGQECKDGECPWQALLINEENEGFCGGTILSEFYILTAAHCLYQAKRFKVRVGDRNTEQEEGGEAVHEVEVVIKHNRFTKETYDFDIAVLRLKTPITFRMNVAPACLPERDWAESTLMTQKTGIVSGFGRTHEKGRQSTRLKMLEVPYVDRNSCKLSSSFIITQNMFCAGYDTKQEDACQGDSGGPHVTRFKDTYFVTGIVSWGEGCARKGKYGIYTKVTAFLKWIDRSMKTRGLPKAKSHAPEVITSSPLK

Plasminogen [3] = molecular target: T1, Plasminogen; test: In vitro inhibitory activity was evaluated against thrombolytic enzyme plasmin; Inactive

T1 sequence (Q01177 97-581 limits assumed): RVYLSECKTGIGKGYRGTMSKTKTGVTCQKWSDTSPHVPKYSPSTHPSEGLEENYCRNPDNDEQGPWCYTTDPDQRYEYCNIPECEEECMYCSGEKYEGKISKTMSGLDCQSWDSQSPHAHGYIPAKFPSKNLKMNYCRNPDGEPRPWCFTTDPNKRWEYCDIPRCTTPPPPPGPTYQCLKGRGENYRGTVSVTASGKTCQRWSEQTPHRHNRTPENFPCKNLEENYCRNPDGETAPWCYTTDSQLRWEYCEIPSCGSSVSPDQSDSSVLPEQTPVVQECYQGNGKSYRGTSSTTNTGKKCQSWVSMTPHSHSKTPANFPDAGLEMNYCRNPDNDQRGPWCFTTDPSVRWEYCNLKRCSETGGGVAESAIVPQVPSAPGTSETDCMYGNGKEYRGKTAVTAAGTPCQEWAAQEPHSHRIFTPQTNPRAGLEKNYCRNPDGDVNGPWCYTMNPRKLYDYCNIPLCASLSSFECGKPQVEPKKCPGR
T1 sequence (Q01177 582-812 limits assumed): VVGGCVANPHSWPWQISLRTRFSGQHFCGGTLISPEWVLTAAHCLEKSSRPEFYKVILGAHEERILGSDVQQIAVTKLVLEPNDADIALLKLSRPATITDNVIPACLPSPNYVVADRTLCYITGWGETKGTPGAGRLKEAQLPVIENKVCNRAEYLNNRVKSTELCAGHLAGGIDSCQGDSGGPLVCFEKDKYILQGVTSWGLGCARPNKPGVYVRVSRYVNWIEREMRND

| SMILES | IC50 (Plasminogen [1]) [nM] | IC50 (Serine protease 1) [nM] | IC50 [2] [nM] | IC50 (Coagulation factor X) [nM] | IC50 (Plasminogen [3]) |
| --- | --- | --- | --- | --- | --- |
| CCCCCCCCCCOC(=O)c1ccccc1CS(=O)(=O)N[C@H]1CCCCN(CC(=O)N[C@H]2CCCN(C(=N)N)C2O)C1=O (stereo not given in full) | > 2500 | 143 | 7.03 | > 2500 | – |
| N=C(N)N1CCC[C@H](NC(=O)CN2CCCC[C@H](NS(=O)(=O)Cc3ccccc3C(=O)O)C2=O)C1O (stereo not given in full) | > 2500 | 247 | 39.1 | > 2500 | – |
| CCCOC(=O)c1ccccc1CS(=O)(=O)N[C@H]1CCCCN(CC(=O)N[C@H]2CCCN(C(=N)N)C2O)C1=O (stereo not given in full) | > 2500 | 79.8 | 0.96 | 451 | – |
| N=C(N)N1CCC[C@H](NC(=O)CN2CCCC[C@H](NS(=O)(=O)Cc3ccccc3C(=O)OCC3CCCCC3)C2=O)C1O (stereo not given in full) | 1760 | 135 | 0.56 | 627 | – |
| COC(=O)c1ccccc1CS(=O)(=O)N[C@H]1CCCCN(CC(=O)N[C@H]2CCCN(C(=N)N)C2O)C1=O (stereo not given in full) | > 2500 | 118 | 0.75 | 333 | – |
| N=C(N)N1CCC[C@H](NC(=O)CN2CCCC[C@H](N3C(=O)c4ccccc4CS3(=O)=O)C2=O)C1O (stereo not given in full) | > 2500 | 2500 | 244 | > 2500 | – |
| CC(C)OC(=O)c1ccccc1CS(=O)(=O)N[C@H]1CCCCN(CC(=O)N[C@H]2CCCN(C(=N)N)C2O)C1=O (stereo not given in full) | > 2500 | 41.3 | 0.94 | 369 | – |
| N=C(N)N1CCC[C@H](NC(=O)CN2CCC[C@H](NS(=O)(=O)Cc3ccccc3)C2=O)C1O (stereo not given in full) | – | – | 6.2 | > 2500 | Not Active |
| N=C(N)N1CCC[C@H](NC(=O)CN2CCCC[C@H](NS(=O)(=O)Cc3ccccc3)C2=O)C1O (stereo not given in full) | > 2500 | 101 | 0.7 | 39.6 | – |
